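Growth conditions: 96-well plates. Treatment: test compound, 48 hours, 5 concentrations. Analysis: linear interpolation between bracketing concentrations; unreached endpoints set to highest concentration. GI50 = concentration required for 50% inhibition of growth.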 Activity calls are given as the source filed them. No stated cut-off is given here; in the data, active = GI50 up to about 1.1 µM and inactive = higher.
Columns and labels:
Assay in all cases: inhibition of tumour cell growth, NCI panel, 48 h
[1] = test system: SR
[2] = test system: DU-145
[3] = test system: NCI-H23
[4] = test system: CAKI-1
[5] = test system: UO-31
[6] = test system: A549
[7] = test system: SF-295
[8] = test system: HCC 2998
[9] = test system: UACC-62
[10] = test system: HCT-15
[11] = test system: T47D
[12] = test system: Malme-3M
[13] = test system: HL-60
[14] = test system: LOX IMVI
[15] = test system: SW-620
[16] = test system: MOLT-4
[17] = test system: SK-MEL-5
[18] = test system: NCI-H226
[19] = test system: COLO 205
[20] = test system: RXF 393

SMILES | GI50 [1] | GI50 [2] | GI50 [3] | GI50 [4] | GI50 [5] | GI50 [6] | GI50 [7] | GI50 [8] | GI50 [9] | GI50 [10] [µM] | GI50 [11] | GI50 [12] | GI50 [13] | GI50 [14] | GI50 [15] | GI50 [16] | GI50 [17] | GI50 [18] | GI50 [19] | GI50 [20]
C/C(=N\NC(=S)Nc1ccc(C)cc1)c1nc2cccnc2[nH]1 | 0.849 µM (active) | 2.59 µM (inactive) | 2.65 µM (inactive) | 1.84 µM (inactive) | 0.649 µM (active) | 2.33 µM (inactive) | 3.07 µM (inactive) | 5.47 µM (inactive) | 2.81 µM (inactive) | 2.86 | 0.406 µM (active) | 4.86 µM (inactive) | 2.22 µM (inactive) | 1.41 µM (inactive) | 3.57 µM (inactive) | 1.27 µM (inactive) | 1.76 µM (inactive) | 1.78 µM (inactive) | 3.9 µM (inactive) | 
CCN1C(NCCO)=NS(=O)(=O)c2ccccc21 | > 100 µM (inactive) | > 100 µM (inactive) | > 100 µM (inactive) | > 100 µM (inactive) | > 100 µM (inactive) | > 100 µM (inactive) | > 100 µM (inactive) | > 100 µM (inactive) | > 100 µM (inactive) | > 100 | > 100 µM (inactive) |  | > 100 µM (inactive) | > 100 µM (inactive) | > 100 µM (inactive) | > 100 µM (inactive) | > 100 µM (inactive) | > 100 µM (inactive) | > 100 µM (inactive) | > 100 µM (inactive)
N#C/C(N)=C(\C#N)NC(=O)C(=O)N/C(C#N)=C(\N)C#N | 58.2 µM (inactive) | > 100 µM (inactive) | > 100 µM (inactive) | > 100 µM (inactive) | > 100 µM (inactive) | > 100 µM (inactive) | 57.8 µM (inactive) | > 100 µM (inactive) | > 100 µM (inactive) | > 100 | > 100 µM (inactive) | 59.6 µM (inactive) |  | > 100 µM (inactive) | > 100 µM (inactive) | 63.1 µM (inactive) | > 100 µM (inactive) | > 100 µM (inactive) | > 100 µM (inactive) | 9.38 µM (inactive)
Cc1cc(C)nc(NC(=S)Nc2ccc(Cl)cc2)c1 | > 100 µM (inactive) | > 100 µM (inactive) |  | 60.5 µM (inactive) | > 100 µM (inactive) | > 100 µM (inactive) | 43.1 µM (inactive) |  | > 100 µM (inactive) | > 100 | > 100 µM (inactive) | 34.8 µM (inactive) | > 100 µM (inactive) | > 100 µM (inactive) | > 100 µM (inactive) | > 100 µM (inactive) | > 100 µM (inactive) | 27.8 µM (inactive) | > 100 µM (inactive) | 36.1 µM (inactive)
Nc1nc(N)c(C2=CCNCC2)c(=O)[nH]1 | > 100 µM (inactive) | > 100 µM (inactive) | > 100 µM (inactive) | > 100 µM (inactive) | > 100 µM (inactive) | > 100 µM (inactive) | > 100 µM (inactive) |  | > 100 µM (inactive) | > 100 | > 100 µM (inactive) | > 100 µM (inactive) | > 100 µM (inactive) |  | > 100 µM (inactive) | > 100 µM (inactive) | > 100 µM (inactive) | > 100 µM (inactive) | > 100 µM (inactive) | > 100 µM (inactive)
CCOC(=O)c1c(N)n(-c2ccccc2)c(=S)n(-c2ccccc2)c1=O | > 100 µM (inactive) | > 100 µM (inactive) | > 100 µM (inactive) |  | > 100 µM (inactive) | > 100 µM (inactive) | > 100 µM (inactive) | > 100 µM (inactive) | > 100 µM (inactive) | > 100 | > 100 µM (inactive) | > 100 µM (inactive) | > 100 µM (inactive) | > 100 µM (inactive) | > 100 µM (inactive) | > 100 µM (inactive) | > 100 µM (inactive) | > 100 µM (inactive) | > 100 µM (inactive) | > 100 µM (inactive)
CC1=NN(c2nc(N)nc(CCl)n2)CC1 | 20.8 µM (inactive) | 56.4 µM (inactive) | 19.3 µM (inactive) | 9.12 µM (inactive) | 7.76 µM (inactive) | 57.7 µM (inactive) | 30.2 µM (inactive) | 31.2 µM (inactive) | 15.2 µM (inactive) | 17.3 | 74.8 µM (inactive) |  | 12 µM (inactive) |  | 23.3 µM (inactive) | 19.7 µM (inactive) | 14.8 µM (inactive) | 30.5 µM (inactive) | 18.5 µM (inactive) | 49.8 µM (inactive)
COC1CC(OC2C(C)OC(OC3C(C)OC(OC4C(O)CC(O[C@H]5CC[C@@]6(C)C(=CC[C@]7(O)[C@@H]6C[C@@H](OC(=O)/C=C/c6ccccc6)[C@@]6(C)[C@]7(O)CC[C@@]6(O)C(C)=O)C5)OC4C)CC3OC)CC2OC)OC(C)C1O (stereo partly specified) | > 6.25 µM (inactive) | > 6.25 µM (inactive) | > 6.25 µM (inactive) | > 6.25 µM (inactive) | 4.52 µM (inactive) | > 6.25 µM (inactive) | > 6.25 µM (inactive) | > 6.25 µM (inactive) | > 6.25 µM (inactive) | > 6.25 | > 6.25 µM (inactive) | > 6.25 µM (inactive) | > 6.25 µM (inactive) | > 6.25 µM (inactive) | > 6.25 µM (inactive) | > 6.25 µM (inactive) | > 6.25 µM (inactive) | > 6.25 µM (inactive) | > 6.25 µM (inactive) | 
O=C1CCCCC(=O)OC2(CCCCC2=O)CC1 (stereo unspecified) | > 100 µM (inactive) | > 100 µM (inactive) | > 100 µM (inactive) | > 100 µM (inactive) | > 100 µM (inactive) | > 100 µM (inactive) | > 100 µM (inactive) | > 100 µM (inactive) | > 100 µM (inactive) | > 100 | > 100 µM (inactive) | > 100 µM (inactive) |  |  | > 100 µM (inactive) | > 100 µM (inactive) | > 100 µM (inactive) | > 100 µM (inactive) | > 100 µM (inactive) | > 100 µM (inactive)
c1cc2c(c(NC3=NCCO3)c1)CCC2 | 86.5 µM (inactive) | > 100 µM (inactive) | > 100 µM (inactive) | > 100 µM (inactive) | > 100 µM (inactive) | > 100 µM (inactive) | > 100 µM (inactive) |  | > 100 µM (inactive) | > 100 | > 100 µM (inactive) | > 100 µM (inactive) | 60.1 µM (inactive) | > 100 µM (inactive) | > 100 µM (inactive) | > 100 µM (inactive) | > 100 µM (inactive) | > 100 µM (inactive) | > 100 µM (inactive) | > 100 µM (inactive)

Reference: ChEMBL document CHEMBL1201862, “PubChem BioAssay data set” (2004)
